Reference: patent US20250179055A1, “Substituted 2-(pyrrolidine-3-yl)acetic acid derivative, preparation method and use thereof” (INNOVSTONE THERAPEUTICS LIMITED, priority 2023, published 2025)

Key:
serum Lp(a) = test: Humanized mouse Lp(a) inhibition test; format: in vivo, humanized Lp(a) transgenic mouse; conditions: blood 8 h after last dose, humanized Lp(a) mice
Experimental: The in vivo pharmacodynamics of the compounds in reducing Lp(a) was evaluated in a humanized Lp(a) transgenic mouse model. Lp(a) mice were obtained by crossing mice expressing humanized apoB-100 with mice expressing humanized apo(a) containing 16 Kringle repeats. Female mice aged 8-9 weeks were selected for the test. Housing conditions: standard light cycle (12 h light/12 h dark), temperature 20-25° C., humidity 40-70%, free access to water and normal diet. is One day before the test, mice were divided into vehicle control group and test article group (n=5/group) according to body weight and baseline plasma Lp(a) concentration. Mice were orally administered with vehicle (normal saline, 10 mL/kg) or test compound (prepared with normal saline to 3 or 0.5 mg/mL, each mouse received 10 mL/kg), once daily (9:00 am) for 3 consecutive days, and blood was collected to determine the change of serum Lp(a). Eight hours after the last dose, 10 μL of blood was collected from the tail vein and transferred to a 1.5 mL centrifuge tube containing 90 μL of normal saline, mixed well, and left to stand on ice for 30 min. The above samples were centrifuged at 4° C., 3000 rpm for 10 min, and the supernatant was collected and placed on ice. The Lp(a) concentration in the supernatant was measured by double-antibody sandwich ELISA using an anti-apo(a) capture antibody and an HRP-conjugated anti-ApoB detection antibody, with TMB for color development. The reaction was stopped with 1 N sulfuric acid, and the OD value was read at 450 nm on a Tecan microplate reader. Inhibition rate was calculated for each dosing group. Inhibition rate (%)=(vehicle control group Lp(a) concentration or self pre-dose Lp(a) concentration post-dose Lp(a) concentration)/vehicle control group Lp(a) concentration or self pre-dose Lp(a) concentration*100.

[1] = target: Lp(a) assembly in HepG2 cells overexpressing ApoA protein (Homo sapiens (Human), UniProt P08519); test: ELISA assay on screening Lp(a) assembly inhibition; format: cell-based; conditions: HepG2 cells overexpressing ApoA protein, 24 h, ELISA of supernatant
Summary of the method: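 HepG2 cells overexpressing ApoA treated with diluted compounds for 24 h at 37 °C, 5% CO2; EACA (10 μL of 1.5 M) added before harvesting supernatant. Secreted Lp(a) quantified by sandwich ELISA; IC50 from four-parameter Hill fit of % inhibition versus concentration.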

[2] = 5 mg/kg oral once daily for 3 days

Lp(a) assembly in HepG2 cells overexpressing ApoA protein, sequence (P08519 20-2040): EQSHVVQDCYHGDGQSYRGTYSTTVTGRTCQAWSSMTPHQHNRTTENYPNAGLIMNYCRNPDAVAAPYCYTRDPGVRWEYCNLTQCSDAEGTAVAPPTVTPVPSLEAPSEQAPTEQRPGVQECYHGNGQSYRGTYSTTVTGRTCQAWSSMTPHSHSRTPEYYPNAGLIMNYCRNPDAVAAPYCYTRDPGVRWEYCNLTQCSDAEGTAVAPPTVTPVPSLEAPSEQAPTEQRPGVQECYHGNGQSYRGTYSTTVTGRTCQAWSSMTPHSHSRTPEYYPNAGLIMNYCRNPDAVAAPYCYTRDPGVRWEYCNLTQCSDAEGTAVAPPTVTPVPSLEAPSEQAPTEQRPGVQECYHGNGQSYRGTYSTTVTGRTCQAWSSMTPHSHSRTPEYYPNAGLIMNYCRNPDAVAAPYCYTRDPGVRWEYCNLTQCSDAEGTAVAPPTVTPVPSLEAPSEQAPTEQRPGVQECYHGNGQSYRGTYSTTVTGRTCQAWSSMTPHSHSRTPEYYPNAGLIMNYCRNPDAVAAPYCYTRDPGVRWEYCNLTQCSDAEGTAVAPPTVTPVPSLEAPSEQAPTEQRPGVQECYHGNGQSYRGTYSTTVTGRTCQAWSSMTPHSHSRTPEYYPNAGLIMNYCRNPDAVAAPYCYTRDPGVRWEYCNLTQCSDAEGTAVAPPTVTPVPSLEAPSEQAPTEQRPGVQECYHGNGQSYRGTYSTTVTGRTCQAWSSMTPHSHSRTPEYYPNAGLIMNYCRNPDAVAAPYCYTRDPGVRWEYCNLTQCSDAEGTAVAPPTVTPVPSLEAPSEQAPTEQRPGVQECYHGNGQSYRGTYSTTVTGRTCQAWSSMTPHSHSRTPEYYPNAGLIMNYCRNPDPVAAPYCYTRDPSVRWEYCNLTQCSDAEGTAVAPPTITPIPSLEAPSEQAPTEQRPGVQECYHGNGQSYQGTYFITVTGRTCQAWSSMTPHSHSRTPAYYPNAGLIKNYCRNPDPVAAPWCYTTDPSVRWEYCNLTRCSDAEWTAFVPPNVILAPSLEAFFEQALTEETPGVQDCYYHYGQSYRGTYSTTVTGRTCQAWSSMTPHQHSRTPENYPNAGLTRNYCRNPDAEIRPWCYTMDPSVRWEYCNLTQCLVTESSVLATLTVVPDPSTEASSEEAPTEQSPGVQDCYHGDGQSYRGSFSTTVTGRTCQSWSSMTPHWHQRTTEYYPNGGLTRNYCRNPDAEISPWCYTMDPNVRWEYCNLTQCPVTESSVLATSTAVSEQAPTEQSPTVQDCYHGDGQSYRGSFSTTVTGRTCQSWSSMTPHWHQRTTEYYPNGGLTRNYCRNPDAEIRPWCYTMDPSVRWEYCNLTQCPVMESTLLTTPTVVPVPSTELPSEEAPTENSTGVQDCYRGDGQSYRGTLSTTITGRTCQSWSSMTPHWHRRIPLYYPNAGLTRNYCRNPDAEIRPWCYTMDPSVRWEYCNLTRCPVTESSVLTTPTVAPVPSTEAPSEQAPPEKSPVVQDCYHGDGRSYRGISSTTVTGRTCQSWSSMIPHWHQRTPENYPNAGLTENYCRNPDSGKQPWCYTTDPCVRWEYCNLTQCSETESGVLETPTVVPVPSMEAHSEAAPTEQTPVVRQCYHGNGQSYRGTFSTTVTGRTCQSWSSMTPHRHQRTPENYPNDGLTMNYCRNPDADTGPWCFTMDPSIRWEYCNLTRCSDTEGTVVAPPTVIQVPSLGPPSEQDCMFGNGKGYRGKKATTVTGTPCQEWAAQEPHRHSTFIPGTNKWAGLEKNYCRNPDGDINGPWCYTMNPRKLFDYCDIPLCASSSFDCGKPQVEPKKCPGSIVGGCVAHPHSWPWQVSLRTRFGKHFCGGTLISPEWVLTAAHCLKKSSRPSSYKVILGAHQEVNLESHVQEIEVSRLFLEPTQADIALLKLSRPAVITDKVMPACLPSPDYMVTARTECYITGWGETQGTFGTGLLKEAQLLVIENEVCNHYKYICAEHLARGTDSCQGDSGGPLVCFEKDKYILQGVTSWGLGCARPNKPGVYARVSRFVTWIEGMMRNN

| IC50 [1] [nM] | Structure (SMILES) | Lp(a) Inhibition Rate (serum Lp(a); [2]) [%] | Lp(a) Inhibition Rate (serum Lp(a); 30 mg/kg oral once daily for 3 days) [%] |
| --- | --- | --- | --- |
| – | O=C(O)[C@@H](Cc1cccc(CN(CCOc2cccc(C[C@H](C(=O)O)[C@H]3CCNC3)c2)C(=O)Cc2cc(C[C@H](C(=O)O)[C@H]3CCNC3)cs2)c1)[C@H]1CCNC1 [Compound 178, ((S)-3-(5-(2-((3-((S)-2-carboxy-2-((R)-pyrrolidin-3-yl)ethyl)benzyl)(2-(3-((S)-2-carboxy-2-((R)-pyrrolidin-3-yl)ethyl)phenoxy)ethyl)amino)-2-oxoethyl)thiophen-3-yl)-2-((R)-pyrrolidin-3-yl)propanoic acid)] | 84 | – |
| 1.81 | COc1cc(CC(=O)N(CCOc2cc(C[C@H](C(=O)O)[C@H]3CCNC3)cc(OC)c2)Cc2cc(C[C@H](C(=O)O)[C@H]3CCNC3)cc(OC)c2)cc(C[C@H](C(=O)O)[C@H]2CCNC2)c1 [Compound 176, (S)-3-(3-(2-((3-((S)-2-carboxy-2-((R)-pyrrolidin-3-yl)ethyl)-5-methoxybenzyl)(2-(3-((S)-2-carboxy-2-((R)-pyrrolidin-3-yl)ethyl)-5-methoxyphenoxy)ethyl)amino)-2-oxoethyl)-5-methoxyphenyl)-2-((R)-pyrrolidin-3-yl)propanoic acid] | 78 | – |
| – | O=C(O)[C@@H](Cc1cccc(OCCN(CCOc2cccc(C[C@H](C(=O)O)[C@H]3CCNC3)c2)C(=O)Oc2cccc(C[C@H](C(=O)O)[C@H]3CCNC3)c2)c1)[C@H]1CCNC1 [Compound 163, (2S,2′S)-3,3′-((((((3-((S)-2-carboxy-2-((R)-pyrrolidin-3-yl)ethyl)phenoxy)carbonyl)azanediyl)bis(ethane-2,1-diyl))bis(oxy))bis(3,1-phenylene))bis(2-((R)-pyrrolidin-3-yl)propanoic acid)] | 81 | – |
| 2 | O=C(O)[C@@H](Cc1cccc(CN(CCOc2cccc(C[C@H](C(=O)O)[C@H]3CCNC3)c2)C(=O)Sc2cccc(C[C@H](C(=O)O)[C@H]3CCNC3)c2)c1)[C@H]1CCNC1 [Compound 138, (S)-3-(3-(2-((3-((S)-2-carboxy-2-((R)-pyrrolidin-3-yl)ethyl)benzyl)(((3-((S)-2-carboxy-2-((R)-pyrrolidin-3-yl)ethyl)phenyl)thio)carbonyl)amino)ethoxy)phenyl)-2-((R)-pyrrolidin-3-yl)propanoic acid] | 88 | – |
| 0.68 | O=C(O)[C@@H](Cc1cccc(CN(Cc2cccc(C[C@H](C(=O)O)[C@H]3CCNC3)c2)C(=O)COc2cccc(C[C@H](C(=O)O)[C@H]3CCNC3)c2)c1)[C@H]1CCNC1 [Compound 95, (2S,2′S)-3,3′-((((2-(3-((S)-2-carboxy-2-((R)-pyrrolidin-3-yl)ethyl)phenoxy)acetyl)azanediyl)bis(methylene))bis(3,1-phenylene))bis(2-((R)-pyrrolidin-3-yl)propanoic acid)] | – | 95 |
| – | [2H]C([2H])(c1cccc(C[C@H](C(=O)O)[C@H]2CCNC2)c1)N(CCOc1cccc(C[C@H](C(=O)O)[C@H]2CCNC2)c1)C(=O)Cc1cccc(C[C@H](C(=O)O)[C@H]2CCNC2)c1 [Compound 193, (S)-3-(3-(2-((2-(3-((S)-2-carboxy-2-((R)-pyrrolidin-3-yl)ethyl)phenoxy)ethyl)((3-((S)-2-carboxy-2-((R)-pyrrolidin-3-yl)ethyl)phenyl)methyl-d2)amino)-2-oxoethyl)phenyl)-2-((R)-pyrrolidin-3-yl)propanoic acid] | 88 | – |
| – | O=C(O)[C@@H](Cc1cccc(CCN(CCOc2cccc(C[C@H](C(=O)O)[C@H]3CCNC3)c2)C(=O)Oc2cccc(C[C@H](C(=O)O)[C@H]3CCNC3)c2)c1)[C@H]1CCNC1 [Compound 162, (S)-3-(3-(2-((3-((S)-2-carboxy-2-((R)-pyrrolidin-3-yl)ethyl)phenethyl)((3-((S)-2-carboxy-2-((R)-pyrrolidin-3-yl)ethyl)phenoxy)carbonyl)amino)ethoxy)phenyl)-2-((R)-pyrrolidin-3-yl)propanoic acid] | 79 | – |
| – | [2H]C([2H])(c1cccc(CC(=O)N(CCOc2cccc(C([2H])([2H])[C@H](C(=O)O)[C@H]3CCNC3)c2)Cc2cccc(C([2H])([2H])[C@H](C(=O)O)[C@H]3CCNC3)c2)c1)[C@H](C(=O)O)[C@H]1CCNC1 [Compound 190, (S)-3-(3-(2-((3-((S)-2-carboxy-2-((R)-pyrrolidin-3-yl)ethyl-1,1-d2)benzyl)(2-(3-((S)-2-carboxy-2-((R)-pyrrolidin-3-yl)ethyl-1,1-d2)phenoxy)ethyl)amino)-2-oxoethyl)phenyl)-2-((R)-pyrrolidin-3-yl)propanoic-3,3-d2 acid] | 83 | – |
| – | O=C(O)[C@@H](Cc1cccc(OCCN(Cc2cc(C[C@H](C(=O)O)[C@H]3CCNC3)cs2)C(=O)Cc2cc(C[C@H](C(=O)O)[C@H]3CCNC3)cs2)c1)[C@H]1CCNC1 [Compound 180, (S)-3-(5-(2-((2-(3-((S)-2-carboxy-2-((R)-pyrrolidin-3-yl)ethyl)phenoxy)ethyl)((4-((S)-2-carboxy-2-((R)-pyrrolidin-3-yl)ethyl)thiophen-2-yl)methyl)amino)-2-oxoethyl)thiophen-3-yl)-2-((R)-pyrrolidin-3-yl)propanoic acid] | 80 | – |
| 1.72 | O=C(O)[C@@H](Cc1cccc(COC(=O)N(CCOc2cccc(C[C@H](C(=O)O)[C@H]3CCNC3)c2)Cc2cccc(C[C@H](C(=O)O)[C@H]3CCNC3)c2)c1)[C@H]1CCNC1 [Compound 145, (S)-3-(3-(2-((3-((S)-2-carboxy-2-((R)-pyrrolidin-3-yl)ethyl)benzyl)(((3-((S)-2-carboxy-2-((R)-pyrrolidin-3-yl)ethyl)benzyl)oxy)carbonyl)amino)ethoxy)phenyl)-2-((R)-pyrrolidin-3-yl)propanoic acid] | – | – |
| 0.88 | O=C(O)[C@@H](Cc1cccc(COCC2CN(Cc3cccc(C[C@H](C(=O)O)[C@H]4CCNC4)c3)CCN2Cc2cccc(C[C@H](C(=O)O)[C@H]3CCNC3)c2)c1)[C@H]1CCNC1 (stereo partly drawn) [Compound 132, (2S,2′S)-3,3′-(((2-(((3-((S)-2-carboxy-2-((R)-pyrrolidin-3-yl)ethyl)benzyl)oxy)methyl)piperazine-1,4-diyl)bis(methylene))bis(3,1-phenylene))bis(2-((R)-pyrrolidin-3-yl)propanoic acid)] | – | – |

| Structure (SMILES) | IC50 [1] [nM] | Lp(a) Inhibition Rate (serum Lp(a); [2]) [%] | Lp(a) Inhibition Rate (serum Lp(a); 30 mg/kg oral once daily for 3 days) [%] |
| --- | --- | --- | --- |
| O=C(O)[C@@H](Cc1cccc(OCCN(CCOc2cccc(C[C@H](C(=O)O)[C@H]3CCNC3)c2)C(=O)COc2cccc(C[C@H](C(=O)O)[C@H]3CCNC3)c2)c1)[C@H]1CCNC1 [Compound 113, (2S,2′S)-3,3′-(((((2-(3-((S)-2-carboxy-2-((R)-pyrrolidin-3-yl)ethyl)phenoxy)acetyl)azanediyl)bis(ethane-2,1-diyl))bis(oxy))bis(3,1-phenylene))bis(2-((R)-pyrrolidin-3-yl)propanoic acid)] | 1.17 | 79 | – |
| O=C(O)[C@@H](Cc1cccc(CN(CCOc2cccc(C[C@H](C(=O)O)[C@H]3CCNC3)c2)C(=O)Oc2cccc(C[C@H](C(=O)O)[C@H]3CCNC3)c2)c1)[C@H]1CCNC1 [Compound 139, (S)-3-(3-(2-((3-((S)-2-carboxy-2-((R)-pyrrolidin-3-yl)ethyl)benzyl)((3-((S)-2-carboxy-2-((R)-pyrrolidin-3-yl)ethyl)phenoxy)carbonyl)amino)ethoxy)phenyl)-2-((R)-pyrrolidin-3-yl)propanoic acid] | 0.66 | – | – |
